pIC50: −log10 of the molar value.
Each compound was assayed against MAPK14 (UniProt Q16539) (assay: Inhibition of MAPK14 Kinase Activity).
Chain of MAPK14 (Q16539 whole entry, looked up): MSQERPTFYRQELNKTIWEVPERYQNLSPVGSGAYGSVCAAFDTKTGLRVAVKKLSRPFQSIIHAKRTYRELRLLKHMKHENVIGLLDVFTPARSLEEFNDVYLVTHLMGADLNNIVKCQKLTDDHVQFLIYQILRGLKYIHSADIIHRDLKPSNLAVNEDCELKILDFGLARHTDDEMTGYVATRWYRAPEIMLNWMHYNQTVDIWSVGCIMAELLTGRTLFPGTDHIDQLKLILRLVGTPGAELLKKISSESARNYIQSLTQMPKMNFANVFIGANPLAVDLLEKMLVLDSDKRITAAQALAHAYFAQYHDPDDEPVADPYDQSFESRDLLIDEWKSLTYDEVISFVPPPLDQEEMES

pIC50 | Compound
6.06 | CN(C)CCNC(=O)Nc1ccc2c(-c3c(-c4ccccn4)nn4c3CCC4)ccnc2c1
5.33 | O=C(Nc1ccc2c(-c3c(-c4ccccn4)nn4c3CCC4)ccnc2c1)Nc1ccc2c(-c3c(-c4ccccn4)nn4c3CCC4)ccnc2c1
5.59 | Nc1ccc2c(-c3c(-c4ccccn4)nn4c3CCC4)ccnc2c1
5.84 | CN(C)CC(=O)Nc1ccc2c(-c3c(-c4ccccn4)nn4c3CCC4)ccnc2c1
5.98 | COCCNC(=O)Nc1ccc2c(-c3c(-c4ccccn4)nn4c3CCC4)ccnc2c1
6.21 | O=C(Nc1ccc2c(-c3c(-c4ccccn4)nn4c3CCC4)ccnc2c1)OCCO
5.97 | O=C(NCCO)Nc1ccc2c(-c3c(-c4ccccn4)nn4c3CCC4)ccnc2c1
5.87 | CC(=O)Nc1ccc2c(-c3c(-c4ccccn4)nn4c3CCC4)ccnc2c1
6.28 | COC(=O)Nc1ccc2c(-c3c(-c4ccccn4)nn4c3CCC4)ccnc2c1
5.61 | CN(C)CCC(=O)Nc1ccc2c(-c3c(-c4ccccn4)nn4c3CCC4)ccnc2c1
5.69 | O=C1OCCN1c1ccc2c(-c3c(-c4ccccn4)nn4c3CCC4)ccnc2c1

From the Kinase Knowledgebase extract (Sharma et al. 2016)
